Structures can show the parent of a compound that is named as a salt.
System: scopolamine induced memory impairment in Sprague Dawley rats
Experiment: Scopolamine induced memory impairment model, Morris Water Maze
Type: in vivo
Details: oral, 4 days; LN16026F3 100 mg/kg, Donepezil 10 mg/kg; vs Scopolamine group
Procedure: Twenty four healthy male Sprague Dawley rats were randomized in to four groups. Animals of groups 1 and 2 were treated daily with vehicle (0.5% sodium CMC in water); group 3 with LN16026F3 (100 mg/kg) and group 4 with Donepezil Hydrochloride Monohydrate (10 mg/kg). Dementia was induced by injecting Scopolamine Hydrobromide (0.2 mg/kg) subcutaneously to G2, G3 & G4 groups. G1 group received only 1 mL/kg of normal saline (0.9% w/v sodium chloride) via subcutaneous route.
The experiment consists of 4 days of acquisition trials and one probe trial on day 5 i.e. the day after the completion of acquisition trails. Rats were allowed to swim for 120 seconds of 4 trials per day during acquisition trial in water maze to find the hidden platform. Each rat received 4 days of acquisition trials and one probe trial of 180 seconds on day 5. The movement of the animals was tracked by the SMART video tracking system. Memory retention was assessed on day 5 in which each animal received a single 180 seconds probe trial without platform in the pool. Dopamine levels were measured in tissue from hippocampal region of the brain using Elisa kit.

COc1cc2c(cc1OC)C(=O)C(CC1CCN(Cc3ccccc3)CC1)C2 (stereo not shown) [Donepezil, Donepezil Hydrochloride Monohydrate]
Target latency, Acquisition Trial: reduction in target latency

Source: patent US20190336555A1, “SYNERGISTIC DIETARY SUPPLEMENT COMPOSITIONS FOR IMPROVING BRAIN HEALTH” (LAILA NUTRACEUTICALS, priority 2016, published 2019)
